Experimental data from PubChem BioAssay (NCI).
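Cultured in 96-well plates, cells were exposed to test compound for 48 hours across five concentrations. At the TGI there is no net growth.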

tested on: 786-0 renal; test: NCI anticancer screen, dose series, 48 h

Compound	TGI [µM]
CC1(c2ccc(F)cc2)C(C#N)C(=O)NC(=O)C1C#N (stereo unspecified)	> 100
C[n+]1c2ccccc2c(/C=N\NS(=O)(=O)c2ccc(O)c(C(=O)O)c2)c2ccccc21	> 100
CCOC(=O)CN1C(=O)c2cccc3cc([N+](=O)[O-])cc(c23)C1=O	26.3
Brc1ccc(N=c2nc3ccccn3n3nc(-c4ccccc4)cc23)cc1	65.2

tested on: A498 renal; test: NCI anticancer screen, dose series, 48 h

Compound	TGI [µM]
CC1(c2ccc(F)cc2)C(C#N)C(=O)NC(=O)C1C#N (stereo unspecified)	> 100
C[n+]1c2ccccc2c(/C=N\NS(=O)(=O)c2ccc(O)c(C(=O)O)c2)c2ccccc21	> 100
CCOC(=O)CN1C(=O)c2cccc3cc([N+](=O)[O-])cc(c23)C1=O	30.6

tested on: A549 NSCLC; test: NCI anticancer screen, dose series, 48 h

Compound	TGI [µM]
CC1(c2ccc(F)cc2)C(C#N)C(=O)NC(=O)C1C#N (stereo unspecified)	> 100
C[n+]1c2ccccc2c(/C=N\NS(=O)(=O)c2ccc(O)c(C(=O)O)c2)c2ccccc21	> 100
CCOC(=O)CN1C(=O)c2cccc3cc([N+](=O)[O-])cc(c23)C1=O	26.6
Brc1ccc(N=c2nc3ccccn3n3nc(-c4ccccc4)cc23)cc1	> 100

tested on: ACHN renal; test: NCI anticancer screen, dose series, 48 h

Compound	TGI [µM]
CC1(c2ccc(F)cc2)C(C#N)C(=O)NC(=O)C1C#N (stereo unspecified)	> 100
C[n+]1c2ccccc2c(/C=N\NS(=O)(=O)c2ccc(O)c(C(=O)O)c2)c2ccccc21	> 100
CCOC(=O)CN1C(=O)c2cccc3cc([N+](=O)[O-])cc(c23)C1=O	21.7
Brc1ccc(N=c2nc3ccccn3n3nc(-c4ccccc4)cc23)cc1	> 100

tested on: CAKI-1 renal; test: NCI anticancer screen, dose series, 48 h

Compound	TGI [µM]
CC1(c2ccc(F)cc2)C(C#N)C(=O)NC(=O)C1C#N (stereo unspecified)	> 100
C[n+]1c2ccccc2c(/C=N\NS(=O)(=O)c2ccc(O)c(C(=O)O)c2)c2ccccc21	> 100
Brc1ccc(N=c2nc3ccccn3n3nc(-c4ccccc4)cc23)cc1	59.9

tested on: CCRF-CEM leukemia; test: NCI anticancer screen, dose series, 48 h

Compound	TGI [µM]
CC1(c2ccc(F)cc2)C(C#N)C(=O)NC(=O)C1C#N (stereo unspecified)	> 100
C[n+]1c2ccccc2c(/C=N\NS(=O)(=O)c2ccc(O)c(C(=O)O)c2)c2ccccc21	> 100
CCOC(=O)CN1C(=O)c2cccc3cc([N+](=O)[O-])cc(c23)C1=O	1.5
Brc1ccc(N=c2nc3ccccn3n3nc(-c4ccccc4)cc23)cc1	> 100

tested on: COLO 205 colon; test: NCI anticancer screen, dose series, 48 h

Compound	TGI [µM]
CC1(c2ccc(F)cc2)C(C#N)C(=O)NC(=O)C1C#N (stereo unspecified)	> 100
Brc1ccc(N=c2nc3ccccn3n3nc(-c4ccccc4)cc23)cc1	> 100

tested on: DLD-1 colon; test: NCI anticancer screen, dose series, 48 h

Compound	TGI [µM]
CC1(c2ccc(F)cc2)C(C#N)C(=O)NC(=O)C1C#N (stereo unspecified)	> 100
C[n+]1c2ccccc2c(/C=N\NS(=O)(=O)c2ccc(O)c(C(=O)O)c2)c2ccccc21	> 100
CCOC(=O)CN1C(=O)c2cccc3cc([N+](=O)[O-])cc(c23)C1=O	5.43
Brc1ccc(N=c2nc3ccccn3n3nc(-c4ccccc4)cc23)cc1	47.7

tested on: DMS 114 small cell lung; test: NCI anticancer screen, dose series, 48 h

Compound	TGI [µM]
CC1(c2ccc(F)cc2)C(C#N)C(=O)NC(=O)C1C#N (stereo unspecified)	> 100
C[n+]1c2ccccc2c(/C=N\NS(=O)(=O)c2ccc(O)c(C(=O)O)c2)c2ccccc21	> 100
CCOC(=O)CN1C(=O)c2cccc3cc([N+](=O)[O-])cc(c23)C1=O	4.94
Brc1ccc(N=c2nc3ccccn3n3nc(-c4ccccc4)cc23)cc1	> 100

tested on: DMS 273 small cell lung; test: NCI anticancer screen, dose series, 48 h

Compound	TGI [µM]
CC1(c2ccc(F)cc2)C(C#N)C(=O)NC(=O)C1C#N (stereo unspecified)	> 100
C[n+]1c2ccccc2c(/C=N\NS(=O)(=O)c2ccc(O)c(C(=O)O)c2)c2ccccc21	> 100

tested on: EKVX NSCLC; test: NCI anticancer screen, dose series, 48 h

Compound	TGI [µM]
CC1(c2ccc(F)cc2)C(C#N)C(=O)NC(=O)C1C#N (stereo unspecified)	> 100
C[n+]1c2ccccc2c(/C=N\NS(=O)(=O)c2ccc(O)c(C(=O)O)c2)c2ccccc21	> 100
CCOC(=O)CN1C(=O)c2cccc3cc([N+](=O)[O-])cc(c23)C1=O	28.6
Brc1ccc(N=c2nc3ccccn3n3nc(-c4ccccc4)cc23)cc1	> 100

tested on: HCC-2998 colon; test: NCI anticancer screen, dose series, 48 h

Compound	TGI [µM]
CC1(c2ccc(F)cc2)C(C#N)C(=O)NC(=O)C1C#N (stereo unspecified)	> 100
C[n+]1c2ccccc2c(/C=N\NS(=O)(=O)c2ccc(O)c(C(=O)O)c2)c2ccccc21	> 100
CCOC(=O)CN1C(=O)c2cccc3cc([N+](=O)[O-])cc(c23)C1=O	14.8

tested on: HCT-116 colon; test: NCI anticancer screen, dose series, 48 h

Compound	TGI [µM]
C[n+]1c2ccccc2c(/C=N\NS(=O)(=O)c2ccc(O)c(C(=O)O)c2)c2ccccc21	> 100
CCOC(=O)CN1C(=O)c2cccc3cc([N+](=O)[O-])cc(c23)C1=O	3
Brc1ccc(N=c2nc3ccccn3n3nc(-c4ccccc4)cc23)cc1	> 100

tested on: HCT-15 colon; test: NCI anticancer screen, dose series, 48 h

Compound	TGI [µM]
CC1(c2ccc(F)cc2)C(C#N)C(=O)NC(=O)C1C#N (stereo unspecified)	> 100
C[n+]1c2ccccc2c(/C=N\NS(=O)(=O)c2ccc(O)c(C(=O)O)c2)c2ccccc21	> 100
CCOC(=O)CN1C(=O)c2cccc3cc([N+](=O)[O-])cc(c23)C1=O	3.47
Brc1ccc(N=c2nc3ccccn3n3nc(-c4ccccc4)cc23)cc1	> 100

tested on: HL-60(TB) leukemia; test: NCI anticancer screen, dose series, 48 h

Compound	TGI [µM]
CC1(c2ccc(F)cc2)C(C#N)C(=O)NC(=O)C1C#N (stereo unspecified)	> 100
C[n+]1c2ccccc2c(/C=N\NS(=O)(=O)c2ccc(O)c(C(=O)O)c2)c2ccccc21	84.2
CCOC(=O)CN1C(=O)c2cccc3cc([N+](=O)[O-])cc(c23)C1=O	2.32
Brc1ccc(N=c2nc3ccccn3n3nc(-c4ccccc4)cc23)cc1	> 100

tested on: HOP-18 NSCLC; test: NCI anticancer screen, dose series, 48 h

Compound	TGI [µM]
CCOC(=O)CN1C(=O)c2cccc3cc([N+](=O)[O-])cc(c23)C1=O	33.8
Brc1ccc(N=c2nc3ccccn3n3nc(-c4ccccc4)cc23)cc1	> 100

tested on: HOP-62 NSCLC; test: NCI anticancer screen, dose series, 48 h

Compound	TGI [µM]
CC1(c2ccc(F)cc2)C(C#N)C(=O)NC(=O)C1C#N (stereo unspecified)	> 100
C[n+]1c2ccccc2c(/C=N\NS(=O)(=O)c2ccc(O)c(C(=O)O)c2)c2ccccc21	> 100
CCOC(=O)CN1C(=O)c2cccc3cc([N+](=O)[O-])cc(c23)C1=O	32.3
Brc1ccc(N=c2nc3ccccn3n3nc(-c4ccccc4)cc23)cc1	32.8

tested on: HOP-92 NSCLC; test: NCI anticancer screen, dose series, 48 h

Compound	TGI [µM]
CC1(c2ccc(F)cc2)C(C#N)C(=O)NC(=O)C1C#N (stereo unspecified)	> 100
C[n+]1c2ccccc2c(/C=N\NS(=O)(=O)c2ccc(O)c(C(=O)O)c2)c2ccccc21	> 100
CCOC(=O)CN1C(=O)c2cccc3cc([N+](=O)[O-])cc(c23)C1=O	6.21
Brc1ccc(N=c2nc3ccccn3n3nc(-c4ccccc4)cc23)cc1	87.2

tested on: HT29 colon; test: NCI anticancer screen, dose series, 48 h

Compound	TGI [µM]
CC1(c2ccc(F)cc2)C(C#N)C(=O)NC(=O)C1C#N (stereo unspecified)	> 100
C[n+]1c2ccccc2c(/C=N\NS(=O)(=O)c2ccc(O)c(C(=O)O)c2)c2ccccc21	> 100
CCOC(=O)CN1C(=O)c2cccc3cc([N+](=O)[O-])cc(c23)C1=O	25.4
Brc1ccc(N=c2nc3ccccn3n3nc(-c4ccccc4)cc23)cc1	> 100

tested on: IGROV1 ovarian; test: NCI anticancer screen, dose series, 48 h

Compound	TGI [µM]
CC1(c2ccc(F)cc2)C(C#N)C(=O)NC(=O)C1C#N (stereo unspecified)	> 100
C[n+]1c2ccccc2c(/C=N\NS(=O)(=O)c2ccc(O)c(C(=O)O)c2)c2ccccc21	> 100
CCOC(=O)CN1C(=O)c2cccc3cc([N+](=O)[O-])cc(c23)C1=O	14.8
Brc1ccc(N=c2nc3ccccn3n3nc(-c4ccccc4)cc23)cc1	> 100

tested on: K-562 leukemia; test: NCI anticancer screen, dose series, 48 h

Compound	TGI [µM]
CC1(c2ccc(F)cc2)C(C#N)C(=O)NC(=O)C1C#N (stereo unspecified)	> 100
C[n+]1c2ccccc2c(/C=N\NS(=O)(=O)c2ccc(O)c(C(=O)O)c2)c2ccccc21	> 100
CCOC(=O)CN1C(=O)c2cccc3cc([N+](=O)[O-])cc(c23)C1=O	2.03
Brc1ccc(N=c2nc3ccccn3n3nc(-c4ccccc4)cc23)cc1	> 100

tested on: KM12 colon; test: NCI anticancer screen, dose series, 48 h

Compound	TGI [µM]
CC1(c2ccc(F)cc2)C(C#N)C(=O)NC(=O)C1C#N (stereo unspecified)	> 100
C[n+]1c2ccccc2c(/C=N\NS(=O)(=O)c2ccc(O)c(C(=O)O)c2)c2ccccc21	> 100
CCOC(=O)CN1C(=O)c2cccc3cc([N+](=O)[O-])cc(c23)C1=O	8.73
Brc1ccc(N=c2nc3ccccn3n3nc(-c4ccccc4)cc23)cc1	> 100

tested on: KM20L2 colon; test: NCI anticancer screen, dose series, 48 h

Compound	TGI [µM]
CC1(c2ccc(F)cc2)C(C#N)C(=O)NC(=O)C1C#N (stereo unspecified)	> 100
C[n+]1c2ccccc2c(/C=N\NS(=O)(=O)c2ccc(O)c(C(=O)O)c2)c2ccccc21	> 100
CCOC(=O)CN1C(=O)c2cccc3cc([N+](=O)[O-])cc(c23)C1=O	26.5
Brc1ccc(N=c2nc3ccccn3n3nc(-c4ccccc4)cc23)cc1	> 100

tested on: LOX IMVI melanoma; test: NCI anticancer screen, dose series, 48 h

Compound	TGI [µM]
CC1(c2ccc(F)cc2)C(C#N)C(=O)NC(=O)C1C#N (stereo unspecified)	> 100
C[n+]1c2ccccc2c(/C=N\NS(=O)(=O)c2ccc(O)c(C(=O)O)c2)c2ccccc21	> 100
CCOC(=O)CN1C(=O)c2cccc3cc([N+](=O)[O-])cc(c23)C1=O	2.74

tested on: LXFL 529 NSCLC; test: NCI anticancer screen, dose series, 48 h

Compound	TGI [µM]
CC1(c2ccc(F)cc2)C(C#N)C(=O)NC(=O)C1C#N (stereo unspecified)	> 100
CCOC(=O)CN1C(=O)c2cccc3cc([N+](=O)[O-])cc(c23)C1=O	3.13
Brc1ccc(N=c2nc3ccccn3n3nc(-c4ccccc4)cc23)cc1	> 100

tested on: M14 melanoma; test: NCI anticancer screen, dose series, 48 h

Compound	TGI [µM]
CC1(c2ccc(F)cc2)C(C#N)C(=O)NC(=O)C1C#N (stereo unspecified)	> 100
C[n+]1c2ccccc2c(/C=N\NS(=O)(=O)c2ccc(O)c(C(=O)O)c2)c2ccccc21	> 100
CCOC(=O)CN1C(=O)c2cccc3cc([N+](=O)[O-])cc(c23)C1=O	11.5
Brc1ccc(N=c2nc3ccccn3n3nc(-c4ccccc4)cc23)cc1	33

tested on: M19-MEL melanoma; test: NCI anticancer screen, dose series, 48 h

Compound	TGI [µM]
CC1(c2ccc(F)cc2)C(C#N)C(=O)NC(=O)C1C#N (stereo unspecified)	> 100
C[n+]1c2ccccc2c(/C=N\NS(=O)(=O)c2ccc(O)c(C(=O)O)c2)c2ccccc21	> 100
Brc1ccc(N=c2nc3ccccn3n3nc(-c4ccccc4)cc23)cc1	> 100

tested on: MALME-3M melanoma; test: NCI anticancer screen, dose series, 48 h

Compound	TGI [µM]
CC1(c2ccc(F)cc2)C(C#N)C(=O)NC(=O)C1C#N (stereo unspecified)	> 100
C[n+]1c2ccccc2c(/C=N\NS(=O)(=O)c2ccc(O)c(C(=O)O)c2)c2ccccc21	> 100
CCOC(=O)CN1C(=O)c2cccc3cc([N+](=O)[O-])cc(c23)C1=O	5.23
Brc1ccc(N=c2nc3ccccn3n3nc(-c4ccccc4)cc23)cc1	26.7

tested on: MOLT-4 leukemia; test: NCI anticancer screen, dose series, 48 h

Compound	TGI [µM]
CC1(c2ccc(F)cc2)C(C#N)C(=O)NC(=O)C1C#N (stereo unspecified)	> 100
C[n+]1c2ccccc2c(/C=N\NS(=O)(=O)c2ccc(O)c(C(=O)O)c2)c2ccccc21	62
CCOC(=O)CN1C(=O)c2cccc3cc([N+](=O)[O-])cc(c23)C1=O	2.45
Brc1ccc(N=c2nc3ccccn3n3nc(-c4ccccc4)cc23)cc1	> 100

tested on: NCI-H226 lung; test: NCI anticancer screen, dose series, 48 h

Compound	TGI [µM]
CC1(c2ccc(F)cc2)C(C#N)C(=O)NC(=O)C1C#N (stereo unspecified)	> 100
C[n+]1c2ccccc2c(/C=N\NS(=O)(=O)c2ccc(O)c(C(=O)O)c2)c2ccccc21	> 100
CCOC(=O)CN1C(=O)c2cccc3cc([N+](=O)[O-])cc(c23)C1=O	23
